Measured values taken from patent publication US10975083B2, “Blood-brain barrier-penetrant dopamine-β-hydroxylase inhibitors” (BIAL—PORTELA & Cᵃ, S.A., priority 2016, dated 2021).
Where two headings read alike, the source gives them in different places.

Columns and labels:
DβH = target: T1, DβH (Homo sapiens, UniProt P09172); assay: DβH inhibition cell assay (SK-N-SH cellular homogenates, tyramine to octopamine); format: biochemical; details: for remaining activity at 0.1 µM: inhibitor 0.1 μM, read-out: DβH activity in % of Ctrl (0.1 μM); for remaining activity at 1 µM: read-out: DβH activity in % of Ctrl (1 μM); for remaining activity at 10 µM: inhibitor 10 μM, read-out: DβH activity in % of Ctrl (10 μM)
T1 construct: reaction mixture (total volume 500 μl) contained: cellular homogenate (75 μg total protein); host or cells: SK-N-SH cell homogenate
T1 sequence (P09172 1-617): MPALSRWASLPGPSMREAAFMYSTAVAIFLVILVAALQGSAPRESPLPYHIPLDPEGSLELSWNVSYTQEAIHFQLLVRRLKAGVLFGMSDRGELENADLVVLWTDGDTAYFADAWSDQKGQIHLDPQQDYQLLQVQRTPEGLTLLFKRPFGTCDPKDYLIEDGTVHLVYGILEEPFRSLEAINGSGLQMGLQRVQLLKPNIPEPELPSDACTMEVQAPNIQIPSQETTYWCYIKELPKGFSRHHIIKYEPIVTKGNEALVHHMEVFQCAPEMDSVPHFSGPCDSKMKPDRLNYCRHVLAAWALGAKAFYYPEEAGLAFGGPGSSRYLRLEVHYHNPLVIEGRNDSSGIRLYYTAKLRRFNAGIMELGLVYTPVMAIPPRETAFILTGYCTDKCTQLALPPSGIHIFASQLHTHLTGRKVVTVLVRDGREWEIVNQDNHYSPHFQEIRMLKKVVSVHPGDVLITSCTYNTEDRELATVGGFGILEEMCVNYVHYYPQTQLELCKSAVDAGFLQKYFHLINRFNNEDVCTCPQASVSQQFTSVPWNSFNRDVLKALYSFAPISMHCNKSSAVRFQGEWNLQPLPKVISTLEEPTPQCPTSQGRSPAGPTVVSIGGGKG

in vitro = details: dog, MDCK, pH 7.4
[1] = inhibitor 1 μM, SK-N-SH cell homogenate

| Structure (SMILES) | remaining activity at 0.1 µM (DβH; SK-N-SH cell homogenate) [%] | remaining activity at 1 µM (DβH; [1]) [%] | remaining activity at 10 µM (DβH; SK-N-SH cell homogenate) [%] | Papp A→B at 30 min, 50 μM (in vitro) [×10⁻⁶ cm/s] | remaining activity at 1 µM (DβH) [%] |
| --- | --- | --- | --- | --- | --- |
| NC(=S)N1CCC(c2ccccc2)C1 (stereo not drawn) [Example 1, 3-Phenylpyrrolidine-1-carbothioamide] | 75.6 | 42.4 | 4 | 63.1 |  |
| NC(=S)N1CCC(c2cccs2)C1 (stereo not drawn) [Example 2, 3-(thiophen-2-yl)pyrrolidine-1-carbothioamide] | 54.9 |  | 0 | 126 |  |
| CC1(c2ccccc2)CCN(C(N)=S)C1 (stereo not drawn) [Example 7, 3-methyl-3-phenylpyrrolidine-1-carbothioamide] | 84.8 | 37.7 | 7.5 | 100 |  |
| NC(=S)N1CC2CC2(c2ccccc2)C1 (stereo not drawn) [Example 8, 1-phenyl-3-azabicyclo[3.1.0]hexane-3-carbothioamide] |  | 14.5 | 2.2 | 126 |  |
| NC(=S)N1CCC(C2CCCCC2)C1 (stereo not drawn) [Example 9, 3-cyclohexylpyrrolidine-1-carbothioamide] |  | 30.9 | 5.3 | 251 |  |
| Cc1ccc(C2CCN(C(N)=S)C2)s1 (stereo not drawn) [Example 10, 3-(5-methylthiophen-2-yl)pyrrolidine-1-carbothioamide] | 54.9 | 2.7 | 0 | 126 |  |
| NC(=S)N1CCC(c2cc(F)cc(F)c2)C1 (stereo not drawn) [Example 12, 3-(3,5-Difluorophenyl)pyrrolidine-1-carbothioamide] | 63 | 11.5 | 0 | 79.4 |  |
| NC(=S)N1CCC(c2ccsc2)C1 (stereo not drawn) [Example 15, 3-(thiophen-3-yl)pyrrolidine-1-carbothioamide] | 50.1 | 9.3 |  | 79.4 |  |
| NC(=S)N1CCC(c2ccco2)C1 (stereo not drawn) [Example 17, 3-(furan-2-yl)pyrrolidine-1-carbothioamide] |  | 56.8 |  | 79.4 |  |
| NC(=S)N1CCC(c2c(F)c(F)cc(F)c2F)C1 (stereo not drawn) [Example 23, 3-(2,3,5,6-Tetrafluorophenyl)pyrrolidine-1-carbothioamide] | 5.9 | 0 |  | 100 |  |
| NC(=S)N1CCC(c2cc(F)cc(F)c2F)C1 (stereo not drawn) [Example 24, 3-(2,3,5-trifluorophenyl)pyrrolidine-1-carbothioamide] | 40.2 | 15.9 |  | 100 |  |
| NC(=S)N1CC[C@@H](c2cc(F)cc(F)c2)C1 [Example 25, (S)-3-(3,5-difluorophenyl)pyrrolidine-1-carbothioamide] | 46.1 | 6.7 |  | 100 |  |
| NC(=S)N1CC[C@H](c2cc(F)cc(F)c2)C1 [Example 26, (R)-3-(3,5-difluorophenyl)pyrrolidine-1-carbothioamide] |  | 21.4 |  | 100 |  |
| NC(=S)N1C[C@H]2C[C@@]2(c2cccs2)C1 [Example 27, (1S,5S)-1-(thiophen-2-yl)-3-azabicyclo[3.1.0]hexane-3-carbothioamide] |  | 20.8 |  | 126 |  |
| CNC(=S)N1C[C@@H]2C[C@]2(c2cc(F)cc(F)c2)C1 [Example 30, (1S,5R)-1-(3,5-Difluorophenyl)-N-methyl-3-azabicyclo[3.1.0]hexane-3-carbothioamide] | 3.3 | 2.8 |  | 126 |  |
| CNC(=S)N1CCC(c2ccccc2)C1 (stereo not drawn) [Example 31, N-methyl-3-phenylpyrrolidine-1-carbothioamide] |  |  | 15.8 | 79.4 |  |
| CNC(=S)N1CCC(c2cc(F)cc(F)c2)C1 (stereo not drawn) [Example 32, 3-(3,5-difluorophenyl)-N-methylpyrrolidine-1-carbothioamide] | 57.3 | 4.7 |  | 100 |  |

| Structure (SMILES) | remaining activity at 0.1 µM (DβH; SK-N-SH cell homogenate) [%] | remaining activity at 1 µM (DβH; [1]) [%] | remaining activity at 10 µM (DβH; SK-N-SH cell homogenate) [%] | Papp A→B at 30 min, 50 μM (in vitro) [×10⁻⁶ cm/s] | remaining activity at 1 µM (DβH) [%] |
| --- | --- | --- | --- | --- | --- |
| NC(=S)N1CC2CC2(c2cc(F)cc(F)c2)C1 (stereo not drawn) [Example 34, 1-(3,5-difluorophenyl)-3-azabicyclo[3.1.0]hexane-3-carbothioamide] | 12.3 | 0 |  | 63.1 |  |
| NC(=S)N1CC2CC2(c2ccc(F)cc2F)C1 (stereo not drawn) [Example 37, 1-(2,4-difluorophenyl)-3-azabicyclo[3.1.0]hexane-3-carbothioamide] | 59.7 | 2.4 |  | 79.4 |  |
| NC(=S)N1CC2CC2(c2cc(F)ccc2F)C1 (stereo not drawn) [Example 38, 1-(2,5-difluorophenyl)-3-azabicyclo[3.1.0]hexane-3-carbothioamide] | 3.3 | 0 |  | 79.4 |  |
| CNC(=S)N1CC(c2cc(F)cc(F)c2)CC1=O (stereo not drawn) [Example 42, 4-(3,5-difluorophenyl)-N-methyl-2-oxopyrrolidine-1-carbothioamide] |  | 44.1 |  | 100 |  |
| CNC(=S)N1CC2(c3cc(F)cc(F)c3)CC2C1=O (stereo not drawn) [Example 43, 1-(3,5-Difluorophenyl)-N-methyl-4-oxo-3-azabicyclo[3.1.0]hexane-3-carbothioamide] | 43.6 | 0 |  | 200 |  |
| S=c1[nH]cc2n1CC(c1ccccc1)C2 (stereo not drawn) [Example 49, 6-phenyl-6,7-dihydro-2H-pyrrolo[1,2-c]imidazole-3(5H)-thione] |  |  |  | 100 | 60.6 |
| Fc1cc(F)cc(C2Cc3c[nH]c(=S)n3C2)c1 (stereo not drawn) [Example 50, 6-(3,5-difluorophenyl)-6,7-dihydro-2H-pyrrolo[1,2-c]imidazole-3(5H)-thione] | 89.3 | 36.6 | 6.8 | 126 |  |
| Fc1ccc(C2Cc3c[nH]c(=S)n3C2)c(F)c1 (stereo not drawn) [Example 51, 6-(2,4-Difluorophenyl)-6,7-dihydro-2H-pyrrolo[1,2-c]imidazole-3(5H)-thione] |  |  |  | 100 | 54.4 |
| Fc1ccc(F)c(C2Cc3c[nH]c(=S)n3C2)c1 (stereo not drawn) [Example 52, 6-(2,5-difluorophenyl)-6,7-dihydro-2H-pyrrolo[1,2-c]imidazole-3(5H)-thione] |  | 27.3 |  | 100 |  |
| Fc1ccc(Br)c(F)c1[C@]12C[C@H]1c1c[nH]c(=S)n1C2 [Example 115, (5aS,6aR)-5a-(3-bromo-2,6-difluorophenyl)-5,5a,6,6a-tetrahydrocyclopropa[3,4]pyrrolo[1,2-c]imidazole-3 (2H)-thione] | 0.5 | 0 |  |  |  |
| Cn1cc2n(c1=S)C[C@@]1(c3cc(Cl)ccc3F)C[C@@H]21 [Example 116, (5aS,6aR)-5a-(5-chloro-2-fluorophenyl)-2-methyl-5,5a,6,6a-tetrahydrocyclopropa[3,4]pyrrolo[1,2-c]imidazole-3 (2H)-thione] | 24.8 | 0 |  |  |  |
| Fc1ccc(Br)c(F)c1[C@@H]1Cc2c[nH]c(=S)n2C1 [Example 117, (S)-6-(3-bromo-2,6-difluorophenyl)-2,5,6,7-tetrahydro-3H-pyrrolo[1,2-c]imidazole-3-thione] | 6.4 | 0 |  |  |  |
| Fc1ccc(Br)c(F)c1[C@H]1Cc2c[nH]c(=S)n2C1 [Example 118, (R)-6-(3-bromo-2,6-difluorophenyl)-2,5,6,7-tetrahydro-3H-pyrrolo[1,2-c]imidazole-3-thione] | 33.8 | 0 |  |  |  |
| Fc1ccc(Br)c(F)c1[C@]12C[C@H]1c1n[nH]c(=S)n1C2 [Example 119, (5aS,6aR)-5a-(3-bromo-2,6-difluorophenyl)-5,5a,6,6a-tetrahydrocyclopropa[3,4]pyrrolo[2,1-c][1,2,4]triazole-3(2H)-thione] | 49.1 | 4.5 |  |  |  |
| Fc1ccc(Br)cc1[C@]12C[C@H]1c1n[nH]c(=S)n1C2 [Example 120, (5aS,6aR)-5a-(5-bromo-2-fluorophenyl)-5,5a,6,6a-tetrahydrocyclopropa[3,4]pyrrolo[2,1-c][1,2,4]triazole-3(2H)-thione] | 86.4 | 21.8 |  |  |  |
| Cc1[nH]c(=S)n2c1[C@@H]1C[C@]1(c1c(F)ccc(Br)c1F)C2 [Example 121, (5aS,6aR)-5a-(3-bromo-2,6-difluorophenyl)-1-methyl-5,5a,6,6a-tetrahydrocyclopropa[3,4]pyrrolo[1,2-c]imidazole-3 (2H)-thione] | 5.2 | 0 |  |  |  |
| CC(C)NCC(O)COc1cccc2ccccc12 (stereo not drawn) [Propranolol, reference compound] |  |  |  | 63.1 |  |
